These results are taken from patent US11135234B2, “Effective aminoglycoside antibiotic for multidrug-resistant bacteria” (MICROBIAL CHEMISTRY RESEARCH FOUNDATION, priority 2015, dated 2021).

Molecules are shown by their SMILES. ≈ marks a conversion by molar mass, not a printed value.

Assay [1] relates to P. aeruginosa PAO1/GN315. The experiment in a line: MIC, agar plate dilution method, P. aeruginosa PAO1/GN315. The class given is cell-based, Pseudomonas aeruginosa. The settings on record: for minimal inhibitory concentration (MIC): P. aeruginosa PAO1/GN315, AMK-resistant. In short, it runs like this: (§1)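 Read-out is the lowest compound concentration inhibiting growth (MIC, μg/mL), obtained by the agar plate dilution procedure of the Japan Society of Chemotherapy.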

The subject of assay [2] is P. aeruginosa MSC01035. The experiment in a line: MIC, agar plate dilution method, P. aeruginosa MSC01035. The settings on record: P. aeruginosa MSC01035, ABK-resistant. The class given is cell-based, Pseudomonas aeruginosa. In a few lines:
as §1

In assay [3] the test system is P. aeruginosa PAO1. The assay can be described thus: MIC, agar plate dilution method, P. aeruginosa PAO1. The class given is cell-based, Pseudomonas aeruginosa. The conditions noted are these: for minimal inhibitory concentration (MIC): P. aeruginosa PAO1, Sensitive bacterium. In a few lines:
as §1

For assay [4], the system named is S. aureus MF490. The experiment in a line: MIC, agar plate dilution method, S. aureus MF490. The settings on record: for minimal inhibitory concentration (MIC): S. aureus MF490, MRSA. The class given is cell-based, Staphylococcus aureus. In short, it runs like this:
as §1

The test system of assay [5] is A. baumannii ATCC BAA-1710. The assay can be described thus: MIC, agar plate dilution method, A. baumannii ATCC BAA-1710. Type of assay: cell-based, Acinetobacter baumannii. The conditions noted are these: for minimal inhibitory concentration (MIC): A. baumannii ATCC BAA-1710, MDRA. In short, it runs like this: as §1
For assay [6], the system named is E. faecium ATCC19434. The experiment in a line: MIC, agar plate dilution method, E. faecium ATCC19434. Type of assay: cell-based, Enterococcus faecium. The settings on record: for minimal inhibitory concentration (MIC): E. faecium ATCC19434. In a few lines:
as §1

Assay [7] relates to S. aureus RN4220/pMS520. The experiment in a line: MIC, agar plate dilution method, S. aureus RN4220/pMS520. Type of assay: cell-based, Staphylococcus aureus. The settings on record: for minimal inhibitory concentration (MIC): S. aureus RN4220/pMS520, MRSA. In short, it runs like this:
as §1

The subject of assay [8] is E. coli JM109/pMW218. The assay can be described thus: MIC, agar plate dilution method, E. coli JM109/pMW218. The conditions noted are these: for minimal inhibitory concentration (MIC): E. coli JM109/pMW218, Sensitive bacterium. The class given is cell-based, Escherichia coli. In a few lines:
as §1

Assay [9] deals with S. marcescens TH-0447. The assay can be described thus: MIC, agar plate dilution method, S. marcescens TH-0447. The class given is cell-based, Serratia marcescens. The settings on record: for minimal inhibitory concentration (MIC): S. marcescens TH-0447, AMK-resistant. In short, it runs like this:
as §1

The test system of assay [10] is P. aeruginosa MSC17707. The experiment in a line: MIC, agar plate dilution method, P. aeruginosa MSC17707. The class given is cell-based, Pseudomonas aeruginosa. The settings on record: for minimal inhibitory concentration (MIC): P. aeruginosa MSC17707, AMK-resistant. In short, it runs like this: as §1
For assay [11], the system named is S. aureus RN4220. The assay can be described thus: MIC, agar plate dilution method, S. aureus RN4220. The class given is cell-based, Staphylococcus aureus. The settings on record: for minimal inhibitory concentration (MIC): S. aureus RN4220, Sensitive bacterium. In short, it runs like this: as §1
Assay [12] deals with S. marcescens GN6944. The experiment in a line: MIC, agar plate dilution method, S. marcescens GN6944. The class given is cell-based, Serratia marcescens. The settings on record: S. marcescens GN6944, GM-resistant. In short, it runs like this: as §1
The subject of assay [13] is K. pneumoniae ATCC BAA-1705. The assay can be described thus: MIC, agar plate dilution method, K. pneumoniae ATCC BAA-1705. The class given is cell-based, Klebsiella pneumoniae. The settings on record: for minimal inhibitory concentration (MIC): K. pneumoniae ATCC BAA-1705, KPC-producing strain. In short, it runs like this: as §1
For assay [14], the system named is K. pneumoniae ATCC BAA-2146. The assay can be described thus: MIC, agar plate dilution method, K. pneumoniae ATCC BAA-2146. The class given is cell-based, Klebsiella pneumoniae. The settings on record: for minimal inhibitory concentration (MIC): K. pneumoniae ATCC BAA-2146, NDM-producing strain. In a few lines: as §1

On to `CN[C@@H]1[C@@H](O[C@@H]2C[C@H](O)[C@H](N)[C@@H](CO)O2)O[C@H]2C[C@@H](N)[C@@H](O[C@H]3[C@@H](F)[C@@H](O)[C@H](N)C[C@@H]3N)O[C@@H]2[C@@H]1O` [Compound O5, 5,2″-dideoxy-5,3″-diepi-5-fluoroapramycin], for which the “minimal inhibitory concentration (MIC)” value in assay [1] was 2 µg/mL (≈ 3.81 µM); in assay [2], 4 µg/mL (≈ 7.61 µM); in assay [3] it was 2 µg/mL (≈ 3.81 µM); in [4], 4 µg/mL (≈ 7.61 µM); in [5], 4 µg/mL (≈ 7.61 µM); in assay [6] it was 8 µg/mL (≈ 15.2 µM). In addition, the “minimal inhibitory concentration (MIC)” value in assay [7] is 1 µg/mL (≈ 1.9 µM); in assay [8] it was 0.5 µg/mL (≈ 0.951 µM); in [9] it was 4 µg/mL (≈ 7.61 µM); in assay [10], 4 µg/mL (≈ 7.61 µM); in [11], 1 µg/mL (≈ 1.9 µM); in [12] it was 2 µg/mL (≈ 3.81 µM). Besides, the “minimal inhibitory concentration (MIC)” value in [13] worked out at 1 µg/mL (≈ 1.9 µM); in assay [14], 0.5 µg/mL (≈ 0.951 µM).

Consider `CNC1C(OC2OC(CO)C(N)C(O)C2O)OC2CC(N)C(OC3C(N)CC(N)CC3F)OC2C1O` (centres unmarked) [Compound C8, 5,6-dideoxy-5-fluoroapramycin], for which the “minimal inhibitory concentration (MIC)” value in assay [1] was found to be 4 µg/mL (≈ 7.61 µM); in assay [2], 8 µg/mL (≈ 15.2 µM); in assay [3], 4 µg/mL (≈ 7.61 µM); in [4], 8 µg/mL (≈ 15.2 µM); in [5], 8 µg/mL (≈ 15.2 µM); in [6], 16 µg/mL (≈ 30.4 µM). Further, the “minimal inhibitory concentration (MIC)” value in assay [7] turned out to be 2 µg/mL (≈ 3.81 µM); in assay [8] it was 1 µg/mL (≈ 1.9 µM); in assay [9] it was 8 µg/mL (≈ 15.2 µM); in [10], 4 µg/mL (≈ 7.61 µM); in [11] it was 2 µg/mL (≈ 3.81 µM); in [12] it was 4 µg/mL (≈ 7.61 µM). In addition, the “minimal inhibitory concentration (MIC)” value in assay [13] and in assay [14] was 1 µg/mL (≈ 1.9 µM) in each case.

For the compound `CNCC(=O)N[C@@H]1C(CO)O[C@H](OC2O[C@H]3CC(N)[C@@H](O[C@@H]4C(N)C[C@@H](N)C(O)[C@H]4O)OC3C(O)C2NC)C(O)[C@H]1O` (some centres unmarked) [Compound V1-b, 4″-N-sarcosylapramycin], the MIC in [1] (Pseudomonas aeruginosa, read-out: minimal inhibitory concentration (MIC), P. aeruginosa PAO1/GN315, AMK-resistant) was 4 µg/mL (≈ 6.55 µM); in assay [2] (Pseudomonas aeruginosa, read-out: minimal inhibitory concentration (MIC)) it was 4 µg/mL (≈ 6.55 µM); in assay [3] (Pseudomonas aeruginosa, PAO1, P. aeruginosa PAO1, Sensitive bacterium, read-out: minimal inhibitory concentration (MIC)) it was 4 µg/mL (≈ 6.55 µM); in assay [4] (Staphylococcus aureus, MRSA, read-out: minimal inhibitory concentration (MIC)), 8 µg/mL (≈ 13.1 µM); in assay [5] (Acinetobacter baumannii, ATCCBAA1710, A. baumannii ATCC BAA-1710, MDRA, read-out: minimal inhibitory concentration (MIC)), 8 µg/mL (≈ 13.1 µM); in assay [6] (Enterococcus faecium, ATCC19434, E. faecium ATCC19434, read-out: minimal inhibitory concentration (MIC)), 16 µg/mL (≈ 26.2 µM). The MIC in assay [7] (Staphylococcus aureus, MRSA, read-out: minimal inhibitory concentration (MIC), S. aureus RN4220/pMS520, MRSA) was 2 µg/mL (≈ 3.28 µM); in assay [8] (Escherichia coli, JM109/PMW218, E. coli JM109/pMW218, Sensitive bacterium, read-out: minimal inhibitory concentration (MIC)), 1 µg/mL (≈ 1.64 µM); in assay [9] (Serratia marcescens, TH0447, S. marcescens TH-0447, AMK-resistant, read-out: minimal inhibitory concentration (MIC)), 16 µg/mL (≈ 26.2 µM); in [10] (Pseudomonas aeruginosa, MSC17707, P. aeruginosa MSC17707, AMK-resistant, read-out: minimal inhibitory concentration (MIC)) it was 4 µg/mL (≈ 6.55 µM); in assay [11] (Staphylococcus aureus, RN4220, S. aureus RN4220, Sensitive bacterium, read-out: minimal inhibitory concentration (MIC)), 2 µg/mL (≈ 3.28 µM); in assay [12] (Serratia marcescens, read-out: minimal inhibitory concentration (MIC)), 8 µg/mL (≈ 13.1 µM). The MIC worked out at 2 µg/mL (≈ 3.28 µM) in assay [13] (Klebsiella pneumoniae, ATCCBAA1705, K. pneumoniae ATCC BAA-1705, KPC-producing strain, read-out: minimal inhibitory concentration (MIC)) and 1 µg/mL (≈ 1.64 µM) in assay [14] (Klebsiella pneumoniae, ATCCBAA2146, K. pneumoniae ATCC BAA-2146, NDM-producing strain, read-out: minimal inhibitory concentration (MIC)).

Regarding `CNC1C(O[C@H]2OC(CO)[C@@H](NCCCN)[C@H](O)C2O)O[C@H]2CC(N)[C@@H](O[C@@H]3C(N)C[C@@H](N)C(O)[C@H]3O)OC2C1O` (some centres unmarked) [Compound S1-h, 4″-N-(3-aminopropyl)-5-epiapramycin], the “minimal inhibitory concentration (MIC)” value in assay [1] was found to be 4 µg/mL (≈ 6.7 µM); in [2], 8 µg/mL (≈ 13.4 µM); in assay [3], 4 µg/mL (≈ 6.7 µM); in assay [4] it was 8 µg/mL (≈ 13.4 µM); in assay [5], 8 µg/mL (≈ 13.4 µM); in assay [6], 16 µg/mL (≈ 26.8 µM). Besides, the “minimal inhibitory concentration (MIC)” value in assay [7] stood at 2 µg/mL (≈ 3.35 µM); in assay [8], 1 µg/mL (≈ 1.68 µM); in assay [9], 8 µg/mL (≈ 13.4 µM); in assay [10] it was 4 µg/mL (≈ 6.7 µM); in assay [11], 2 µg/mL (≈ 3.35 µM); in assay [12], 8 µg/mL (≈ 13.4 µM). The “minimal inhibitory concentration (MIC)” value in assay [13] is 2 µg/mL (≈ 3.35 µM); in assay [14] it was 1 µg/mL (≈ 1.68 µM).
